EP0497988A1, “ANTIVIRAL AGENT” (DAINIPPON INK AND CHEMICALS, INC., priority 1990, dated 1992)
In brackets after ≈: the same amount, converted by molar mass.

Key:
HTLV-IIIB = experiment: Anti-HIV activity by MTT (tetrazolium) method in MT-4 cells; assay type: cell-based; conditions: for EC₅₀: MT-4 cells infected with HTLV-IIIB, MOI 0.01, 5 days, MTT
Procedure: (§1) Test Method: MMT (the tetrazolium assay) method Cell: MT-4 Cell Virus: HTLV-IIIB (Infection : 3 x 10⁵ plaque forming units (PFU)/ml) MT-4 cells were suspended in a culture medium at 2 x 10⁵ cells/ml and infected with HIV-IIIB at a multiplicity of infection of 0.01. Immediately after infection, 100µl of cell suspension was placed into microtiter tray wells containing various concentrations of the test samples. At the same time, the mock-infected cells were also cultured together with the samples in order to assess the cell toxicity of the test samples to the MT-4 cell. They were cultured in a CO₂-gas incubator at 37°C for 5 days, and the number of viable cells were determined by the MTT method. Antiviral activity is expressed by EC₅₀ (50% effective concentration), the concentration at which the agent protects 50% of the cells from injury by HIV infection, and cell toxicity by CC₅₀ (50% cell toxicity concentration), the concentration at which 50% of the cells are injured by the agent. Selectivity is measured by a selectivity index (S.I), which is expressed by CC₅₀/EC₅₀ (R. Pauwels, et al., J. of […], vol. 20, 1988, pp. 309-321).

[1] = Cell toxicity to mock-infected MT-4 cells by MTT method; assay type: cell-based; conditions: human, 5 days, read-out: CC₅₀
Procedure: as §1

MT-4 Cell [2] = experiment: as above; assay type: cell-based; conditions: 5 days
Procedure: as §1

MT-4 Cell [3] = experiment: Viable count of mock-infected MT-4 cells cultured with sample (trypan blue exclusion); assay type: cell-based
Procedure: Samples: MPS-1, MPS-2, MPS-3 and LPS-1 Cell and Virus: MT-4 Cell, MOLT-4 Cell HTLV as one HIV strain was prepared from the supernatant of the HIV-infected cells. The titer for the virus preparation (6 x 10⁵ plaque formation units/ml) was measured by the plaque assay method using MT-4 cells.
The MT-4 cells were mixed with HIV at 0.002MOI (multiplicity of infection), to be cultured at 37°C for 60 min. The virus-absorbing cells were washed and adjusted at 3 x 10⁵ cells/ml (the culture medium was RPMI1640 which supplemented with 10% heat-inactivated fetal calf serum and antibiotic). The suspension of the infected cells was cultured in the presence of the sample, and then cultured in a CO₂-containing atmosphere for 3 days. Then, the medium was replaced with the one containing the same quantity of the sample. Percentages of the viable cells and virus antigen positive cells were counted by the trypan blue exclusion method and indirect fluorescent antibody (IF) methods, respectively.
The test results are given in Tables 1 through 8, where the units for concentration, mock-infected cell count, infected cell count, percentage of HIV-antigen positive cell are µg/ml, x 10⁴cells/ml, and x 10⁴cells/ml, %, respectively.

HIV [4] = experiment: HIV-induced cytopathic effect: viable count of HIV-infected MT-4 cells (trypan blue exclusion)
Procedure: (§2) The anti-HIV activity of each sample was evaluated by the HIV-induced cytopathic effect (CPE) and the expression of the virus-specific antigen.

HIV [5] = experiment: Expression of virus-specific antigen in HIV-infected MT-4 cells (indirect fluorescent antibody method)
Procedure: as §2

[6] = 3rd day, concentration 25 µg/ml
[7] = 3rd day, concentration 50 µg/ml
[8] = 3rd day, concentration 100 µg/ml
[9] = 3rd day, concentration 200 µg/ml
[10] = 3rd day, concentration 500 µg/ml
[11] = 6th day, concentration 25 µg/ml
[12] = 6th day, concentration 50 µg/ml
[13] = 6th day, concentration 100 µg/ml
[14] = 6th day, concentration 200 µg/ml

Cc1cn([C@H]2C[C@H](N=[N+]=[N-])[C@@H](CO)O2)c(=O)[nH]c1=O [AZT, 3'-azide-3'-deoxythymidine, reference compound] gave an EC50 (HTLV-IIIB; Human immunodeficiency virus 1, IIIB, MT4, 120 h, read-out: EC₅₀) of 0.0019 µg/mL (≈ 0.00711 µM) and a CC50 at 120 h [1] of 3.06 µg/mL (≈ 11.5 µM).
With “sodium salt of dodecyl 4-galactosyl β-D-lactoside sulfate [GTS-1]” the EC₅₀ (HTLV-IIIB) was 9.8 µg/mL.
“sodium salt of dodecyl 4-galactosyl-β-D-lactoside sulfate [GTS-2]” showed an EC₅₀ (HTLV-IIIB) of 8.6 µg/mL and a CC₅₀ (MT-4 Cell [2]) of 858 µg/mL.
With “sodium salt of dodecyl maltohexaoside sulfate [MHS-2]” the EC₅₀ (HTLV-IIIB) was 3.91 µg/mL and the CC₅₀ (MT-4 Cell [2]) was > 1000 µg/mL.
With “sodium salt of dodecyl β-D-laminaripentaoside sulfate [LPS-1-1]” the EC₅₀ (HTLV-IIIB) was 0.68 µg/mL and the CC₅₀ (MT-4 Cell [2]) was > 1000 µg/mL.
In the case of “sodium salt of n-decyl β-laminaripentaoside sulfate [LPS-3]”, the EC₅₀ (HTLV-IIIB) is reported as “= 67 µg/ml”.
For “sodium salt of n-hexadecyl β-laminaripentaoside sulfate [LPS-2]”, the EC₅₀ (HTLV-IIIB) was “= 17 µg/ml”.
With “sodium salt of octadecyl maltoheptaoside sulfate [MHS-1]” the EC₅₀ (HTLV-IIIB) was 2) > 40 µg/ml and the CC₅₀ (MT-4 Cell [2]) was 355 µg/mL.
“sodium salt of octadecyl maltohexaoside sulfate [MHS-3]” showed an EC₅₀ (HTLV-IIIB) of 10.36 µg/mL and a CC₅₀ (MT-4 Cell [2]) of 580 µg/mL.
With “sodium salt of octadecyl maltotrioside sulfate [MTS-1]” the EC₅₀ (HTLV-IIIB) was 1) > 40 µg/ml and the CC₅₀ (MT-4 Cell [2]) was 329 µg/mL.
“sodium salt of sulfated dodecyl β-D-laminarpentaoside [LPS-1]” showed a Mock-infected cell count (MT-4 Cell [3]; [6]) of 151 x 10⁴cells/ml, a Mock-infected cell count (MT-4 Cell [3]; [7]) of 149 x 10⁴cells/ml and a Mock-infected cell count (MT-4 Cell [3]; [8]) of 136 x 10⁴cells/ml. For the same compound, the Mock-infected cell count (MT-4 Cell [3]; [9]) was 120 x 10⁴cells/ml, the Mock-infected cell count (MT-4 Cell [3]; [10]) was 79 x 10⁴cells/ml and the Mock-infected cell count (MT-4 Cell [3]; [11]) was 145 x 10⁴cells/ml. For the same compound, the Mock-infected cell count (MT-4 Cell [3]; [12]) was 149 x 10⁴cells/ml, the Mock-infected cell count (MT-4 Cell [3]; [13]) was 140 x 10⁴cells/ml and the Mock-infected cell count (MT-4 Cell [3]; [14]) was 124 x 10⁴cells/ml. It also gave an HIV-infected cell count (HIV [4]; [6]) of 133 x 10⁴cells/ml, an HIV-infected cell count (HIV [4]; [7]) of 128 x 10⁴cells/ml and an HIV-infected cell count (HIV [4]; [8]) of 130 x 10⁴cells/ml. For the same compound, the HIV-infected cell count (HIV [4]; [11]) was 88 x 10⁴cells/ml, the HIV-infected cell count (HIV [4]; [12]) was 150 x 10⁴cells/ml and the HIV-infected cell count (HIV [4]; [13]) was 107 x 10⁴cells/ml. For the same compound, the “Percentage of HIV-antigen positive cell” value (HIV [5]; [6]) was 3%, the “Percentage of HIV-antigen positive cell” value (HIV [5]; [7]) was < 1% and the “Percentage of HIV-antigen positive cell” value (HIV [5]; [8]) was < 1%. For the same compound, the “Percentage of HIV-antigen positive cell” value (HIV [5]; [9]) was < 1%, the “Percentage of HIV-antigen positive cell” value (HIV [5]; [10]) was < 1% and the “Percentage of HIV-antigen positive cell” value (HIV [5]; [11]) was 20%. For the same compound, the “Percentage of HIV-antigen positive cell” value (HIV [5]; [12]) was < 1%, the “Percentage of HIV-antigen positive cell” value (HIV [5]; [13]) was 0% and the “Percentage of HIV-antigen positive cell” value (HIV [5]; [14]) was 0%.
